Read-outs that look alike come from different tables or passages of the source.
How the values were obtained:
LAMSS = experiment: Post-emergent Test III, herbicidal activity in wheat and barley; assay type: in vivo; settings: Table 8, 21 d; for GR50 LAMSS: dose for 50 percent growth reduction; for GR50 LAMSS / GR80 LAMSS: probit analysis; for GR80 LAMSS: dose for 80 percent growth reduction; for pest or weed control at 35 g/ha: 35 g ai/ha; for pest or weed control at 70 g/ha: 70 g ai/ha
Outline: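 GR20, GR50, GR80 and GR90 come from probit analysis of visual injury scores (0 = none, 100 = complete kill) taken 21 d after treatment. Foliar application was by track sprayer delivering 187 L/ha at five rates, from high down to 1/16×, onto greenhouse plants at the 2–3 leaf stage, with solvent-blank controls.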

[1] = system: test plant species in Direct Seeded Rice; experiment: Postemergence herbicidal activity in direct seeded rice (Table 13); assay type: in vivo; settings: for pest or weed control at 35 g/ha / pest or weed control at 70 g/ha: post-emergence, 504 h; for pest or weed control at 35 g/ha: 35 g ai/ha; for pest or weed control at 70 g/ha: 70 g ai/ha
Source text: Seeds or nutlets of the desired test plant species were planted in a soil matrix prepared by mixing a loam soil (43 percent silt, 19 percent clay, and 38 percent sand, with a pH of about 8.1 and an organic matter content of about 1.5 percent) and river sand in an 80 to 20 ratio. The soil matrix was contained in plastic pots with a surface area of 139.7 cm^2. When required to ensure good germination and healthy plants, a fungicide treatment and/or other chemical or physical treatment was applied. The plants were grown for 10-17 d in a greenhouse with an approximate 14-h photoperiod which was maintained at about 29° C. during the day and 26° C. during the night. Nutrients and water were added on a regular basis and supplemental lighting was provided with overhead metal halide 1000-Watt lamps as necessary. The plants were employed for testing when they reached the second or third true leaf stage. A weighed amount, determined by the highest rate to be tested, of each test compound was placed in 25 mL glass vials and dissolved in a volume of 97:3 v/v acetone-DMSO to obtain 12× stock solutions. […] The concentrated stock solutions were added to the spray solutions so that the final acetone and DMSO concentrations were 16.2% and 0.5%, respectively. Spray solutions were diluted to the appropriate final concentrations with the addition of 10 mL of an aqueous mixture of 1.5% (v/v) Agri-dex crop oil concentrate. […] Compound requirements are based upon a 12 mL application volume at a rate of 187 L/ha. Formulated compounds were applied to the plant material with an overhead Mandel track sprayer equipped with […] nozzles calibrated to deliver 187 L/ha over an application area of 0.503 square meters (m^2) at a spray height of 18 inches (43 cm) above average plant canopy height. Control plants were sprayed in the same manner with the solvent blank. The treated plants and control plants were placed in a greenhouse as described above and watered by sub-irrigation to prevent wash-off of the test compounds. After 20-22 days, the condition of the test plants, compared with that of the untreated plants, was determined visually and scored on a scale of 0 to 100 percent where 0 corresponds to no injury and 100 corresponds to complete kill. By applying the well-accepted probit analysis as described by J. Berkson in Journal of the American Statistical Society, 48, 565 (1953) and by D. Finney in “Probit Analysis” Cambridge University Press (1952), the above data can be used to calculate GR20, GR50, GR80 and GR90 values, which are defined as growth reduction factors that correspond to the effective dose of herbicide required to kill or control 20 percent, 50 percent, 80 percent or 90 percent, respectively, of a target plant.

[2] = post-emergence, 504 h, post-emergent, read-out: Visual Growth Reduction (%) 21 Days After Application LAMSS
[3] = BRAPP: broadleaf signalgrass, Brachiaria platyphylla, probit analysis
[4] = CYPSS: sedge (Cyperus difformis, esculentus, iria), probit analysis
[5] = ECHSS: barnyardgrass (Echinochloa crus-galli), junglerice (Echinochloa colonum), probit analysis
[6] = LEFSS: sprangletop (Leptochloa chinensis, Leptochloa dubia), probit analysis
[7] = SCPJU: Japanese bulrush, Scirpus juncoides, probit analysis
[8] = SEBEX: hemp sesbania, Sesbania exaltata, probit analysis
[9] = BRAPP: broadleaf signalgrass, Brachiaria platyphylla, read-out: Visual Growth Reduction (%) 21 Days After Application BRAPP
[10] = CYPSS: sedge (Cyperus difformis, esculentus, iria), read-out: Visual Growth Reduction (%) 21 Days After Application CYPSS
[11] = ECHSS: barnyardgrass (Echinochloa crus-galli), junglerice (Echinochloa colonum), read-out: Visual Growth Reduction (%) 21 Days After Application ECHSS
[12] = LEFSS: sprangletop (Leptochloa chinensis, Leptochloa dubia), read-out: Visual Growth Reduction (%) 21 Days After Application LEFSS
[13] = ORYSS: Oryza sativa, read-out: Visual Growth Reduction (%) 21 Days After Application ORYSS
[14] = SCPJU: Japanese bulrush, Scirpus juncoides, read-out: Visual Growth Reduction (%) 21 Days After Application SCPJU
[15] = SEBEX: hemp sesbania, Sesbania exaltata, read-out: Visual Growth Reduction (%) 21 Days After Application SEBEX

For `Nc1c(Cl)c(C(=O)O)nc(-c2ccc(I)c(F)c2)c1Cl` [Compound 145, 4-Amino-3,5-dichloro-6-(3-fluoro-4-iodophenyl)picolinic acid], the “GR50 LAMSS” value (LAMSS) was 4 g ai/ha, the “GR80 LAMSS” value (LAMSS) was 13 g ai/ha and the pest or weed control at 35 g/ha (LAMSS; [2]) was 95 to 100%. It also gave a pest or weed control at 70 g/ha (LAMSS; [2]) of 95 to 100% and a pest or weed control at 140 g/ha (LAMSS; post-emergence, 504 h, 140 g ai/ha, post-emergent, read-out: Visual Growth Reduction (%) 21 Days After Application LAMSS) of 95 to 100%.

In the case of `COC(=O)c1nc(-c2ccc(I)c(F)c2)c(C)c(N)c1Cl` [Compound 79, Methyl 4-amino-3-chloro-6-(3-fluoro-4-iodophenyl)-5-methylpicolinate], the “GR50 LAMSS” value (LAMSS) is reported as 27 g ai/ha, the “GR80 LAMSS” value (LAMSS) is reported as 72 g ai/ha and the pest or weed control at 35 g/ha (LAMSS; [2]) is reported as 60 to 74%. The pest or weed control at 70 g/ha (LAMSS; [2]) was 60 to 74%.

With `COc1c(N)nc(-c2cc(F)c(Br)cc2F)nc1C(=O)O` [Compound 11] the “GR50 BRAPP” value [1, 3] was 13 g ai/ha, the “GR80 BRAPP” value [1, 3] was 44 g ai/ha and the “GR50 CYPSS” value [1, 4] was 1 g ai/ha. For the same compound, the “GR80 CYPSS” value [1, 4] was 1 g ai/ha, the “GR50 ECHSS” value [1, 5] was 11 g ai/ha and the “GR80 ECHSS” value [1, 5] was 25 g ai/ha. The “GR50 LEFSS” value [1, 6] was 175 g ai/ha, the “GR80 LEFSS” value [1, 6] was 463 g ai/ha and the “GR20 ORYSS” value ([1]; ORYSS: Oryza sativa (crop), probit analysis) was 25 g ai/ha. The “GR50 SCPJU” value [1, 7] was 1 g ai/ha, the “GR80 SCPJU” value [1, 7] was 1 g ai/ha and the “GR50 SEBEX” value [1, 8] was 3 g ai/ha. The “GR80 SEBEX” value [1, 8] was 7 g ai/ha, the pest or weed control at 35 g/ha [1, 9] was 60 to 74% and the pest or weed control at 70 g/ha [1, 9] was 85 to 94%. For the same compound, the pest or weed control at 35 g/ha [1, 10] was 95 to 100%, the pest or weed control at 70 g/ha [1, 10] was 95 to 100% and the pest or weed control at 35 g/ha [1, 11] was 85 to 94%. The pest or weed control at 70 g/ha [1, 11] was 95 to 100%, the pest or weed control at 35 g/ha [1, 12] was 0 to 29% and the pest or weed control at 70 g/ha [1, 12] was 0 to 29%. It also gave a pest or weed control at 35 g/ha [1, 13] of 30 to 44%, a pest or weed control at 70 g/ha [1, 13] of 45 to 59% and a pest or weed control at 35 g/ha [1, 14] of 95 to 100%. It also gave a pest or weed control at 70 g/ha [1, 14] of 95 to 100%, a pest or weed control at 35 g/ha [1, 15] of 95 to 100% and a pest or weed control at 70 g/ha [1, 15] of 95 to 100%.

From patent publication US9113629B2, “4-amino-6-(4-substituted-phenyl)-picolinates and 6-amino-2-(4-substituted-phenyl)-pyrimidine-4-carboxylates and their use as herbicides” (DOW AGROSCIENCES LLC, priority 2013, dated 2015)
